Several values for one entry are separate records, joined by “and”; a condition that tells them apart may be missing. Equal entries are not always repeated.
Target: JNK1 (Homo sapiens, UniProt P45983)
Test: DELFIA kinase assay, JNK1
Assay type: biochemical
Conditions: DELFIA assay, 2 nM JNK1, 7 uM ATP, 10 min pre-incubation
Procedure: Assay DELFIA (Dissociation Enhanced Lanthanide Fluorescence Immuno-Assay) Assay:
Before initiation of kinase reactions, compounds were pre-incubated with the enzyme for 10 minutes. Pre-incubation reactions contained 50 mM HEPES pH 7.3, 10 mM MgCl2, 1 mM DTT, 75 mM NaCl, 1 mM EDTA, 1 mM EGTA, 0.01% CHAPS, 2 nM JNK1, 6 ug/mL biotinylated GST-ATF2, 0.1 mg/ml BSA, 5% DMSO and 0-100 μM compound in a total volume of 40 μL. After a 10 minute room temperature pre-incubation, 10 μL of 35 μM ATP was added to start the reaction (final concentration of ATP=7 uM). Reactions were incubated at room temperature for 30 minutes. A small aliquot (10 uL) was taken and quenched by adding into 190 uL of DELFIA Assay buffer containing 100 mM EDTA. The amount of phosphate transferred to biotinylated GST-ATF2 was measured using the Dissociation Enhanced Lanthanide Fluorescence Immuno-assay (DELFIA) from Perkin Elmer according to manufacturers protocol. Briefly, biotinylated GST-ATF2 was captured on streptavidin coated plates for 1 hour, washed twice, then incubated for 1 hour with a 1:1000 dilution of rabbit-anti-phospho-ATF2 antibody and a 1:3500 dilution of Europium-labeled anti-rabbit secondary antibody. Free antibody was removed with six washes, Europium was dissociated from the antibody, and Europium fluorescence was measured using an excitation wavelength of 340 nm and an emission wavelength of 615 nm. JNK2 and JNK3 kinase reactions were carried out similarly, with the exception that the final concentration of ATP was 4 uM and 2 uM, respectively.

JNK1, sequence (P45983 whole entry, species assumed): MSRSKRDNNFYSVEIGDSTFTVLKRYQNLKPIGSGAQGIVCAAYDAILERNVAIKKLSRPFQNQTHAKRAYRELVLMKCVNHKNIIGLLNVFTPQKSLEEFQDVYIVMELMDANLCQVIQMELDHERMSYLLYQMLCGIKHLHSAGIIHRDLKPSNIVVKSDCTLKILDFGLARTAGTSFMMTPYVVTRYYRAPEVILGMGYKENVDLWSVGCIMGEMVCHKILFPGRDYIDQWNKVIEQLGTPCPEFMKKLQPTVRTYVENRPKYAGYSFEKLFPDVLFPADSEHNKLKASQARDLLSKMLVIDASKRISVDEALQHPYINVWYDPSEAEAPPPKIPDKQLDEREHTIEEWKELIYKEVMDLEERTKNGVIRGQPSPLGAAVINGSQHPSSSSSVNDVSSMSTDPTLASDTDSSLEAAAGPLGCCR

| SMILES | IC50 [nM] |
| --- | --- |
| Cc1nc2ccc(-n3cc(CNC(=O)c4cccc(C(=O)NC(C)C)n4)cn3)cc2n1C(C)C [Compound 228] | 8 |
| CC(C)NC(=O)c1cccc(C(=O)NCc2cnn(-c3ccc(S(=O)(=O)N(C)C)c(Cl)c3)c2)n1 [Compound 246] | 4 |
| Cc1ccc2cc(-n3cc(CNC(=O)c4cccc(C(=O)NC(C)C)n4)cn3)ccc2n1 [Compound 149] | 14 |

Same assay, conditions: DELFIA assay, 2 nM JNK1, 7 uM ATP, 10 min pre-incubation; second table; read-out: JNK 1 IC50

| SMILES | IC50 [nM] |
| --- | --- |
| Cc1nc2ccc(-n3cc(CNC(=O)c4cccc(C(=O)NC(C)C)n4)cn3)cc2n1C(C)C [Compound 228] | 8 |
| CC(C)NC(=O)c1cccc(C(=O)NCc2cnn(-c3ccc(S(=O)(=O)N(C)C)c(Cl)c3)c2)n1 [Compound 246] | 4 |
| Cc1ccc2cc(-n3cc(CNC(=O)c4cccc(C(=O)NC(C)C)n4)cn3)ccc2n1 [Compound 149] | 14 |

Same assay, conditions: DELFIA, biotinylated GST-ATF2 substrate, 10 minute pre-incubation, final ATP 7 uM

| SMILES | IC50 |
| --- | --- |
| CC(C)NC(=O)c1cccc(C(=O)NCc2ccc(Cl)cc2)n1 [Compound 97] | 102 to 959 nM |
| COc1cccc2ccc(C(=O)NCc3ccc(S(C)(=O)=O)cc3)nc12 [Compound 383] | 102 to 959 nM |
| CC(C)NC(=O)c1cccc(C(=O)NCc2ccc3sc(NC(N)=O)nc3c2)n1 [Compound 87] | 4 to 97 nM |
| Nc1nc2ccc(CNC(=O)c3cccc(C(=O)NCCCO)n3)cc2s1 [Compound 17] | > 1000 nM |
| CC(C)NC(=O)c1cccc(C(=O)NCc2cnn(-c3ccc4ncn(C)c4c3)c2)n1 [Compound 147] | 4 to 97 nM |
| CC(C)NC(=O)c1cccc(C(=O)NCc2ccc(-n3cccn3)cc2)n1 [Compound 109] | 102 to 959 nM |
| CC(C)NC(=O)c1cccc(C(=O)NCc2ccc(-c3ccc(C#N)cc3)cc2)n1 [Compound 195] | 102 to 959 nM |
| CC(C)NC(=O)c1cccc(C(=O)NCC2CCN(c3cccc(C#N)c3)CC2)n1 [Compound 419] | > 1000 nM and 1030 to 10000 nM |
| Cc1ccc(-c2ccc(CNC(=O)c3cccc(C(=O)NC(C)C)n3)cn2)cc1 [Compound 177] | 102 to 959 nM |
| CC(C)NC(=O)c1cccc(C(=O)NCc2cnn(-c3ccc(F)c(Cl)c3)c2)n1 [Compound 131] | 4 to 97 nM |
| CC(C)NC(=O)c1cccc(C(=O)NCc2cnn(-c3ccccc3)c2)n1 [Compound 100] | 4 to 97 nM |
| CC(C)NC(=O)c1cccc(C(=O)NCc2cccc(-c3ccc(S(C)(=O)=O)cc3)c2)n1 [Compound 192] | 4 to 97 nM |
| CC(C)NC(=O)c1cccc(C(=O)NCc2cccc(Cl)c2)n1 [Compound 96] | 102 to 959 nM |
| CCOC(=O)N1CCC(NC(=O)c2cccc(C(=O)NCc3ccc4c(c3)OCO4)n2)CC1 [Compound 44] | 102 to 959 nM |
| CC(C)NC(=O)c1cccc(C(=O)NCc2cccc(-c3cccc(C#N)c3)c2)n1 [Compound 189] | 4 to 97 nM |
| CS(=O)(=O)c1ccc(-n2cc(CNC(=O)c3cccc(C(=O)NC4CCCCC4)n3)cn2)cc1 [Compound 77] | 4 to 97 nM |
| CS(=O)(=O)c1ccc(CNC(=O)c2cccc(C(=O)NC3CCN(c4ccncc4)CC3)n2)cc1 [Compound 275] | 1030 to 10000 nM and > 1000 nM |
| CC(C)NC(=O)c1cccc(C(=O)NCc2cncc(-c3ccc(C#N)cc3)c2)n1 [Compound 257] | 4 to 97 nM |
| Cc1nc2cc(CNC(=O)c3cccc(C(=O)NC(C)C)n3)ccc2[nH]1 [Compound 108] | 102 to 959 nM |
| CC(C)NC(=O)c1cccc(C(=O)NCc2ccc(-c3cccc(C#N)c3)nc2)n1 [Compound 178] | 102 to 959 nM |
| CCOC(=O)N1CCC(NC(=O)c2cccc(Nc3ccccn3)n2)CC1 [Compound 396] | > 1000 nM |
| CS(=O)(=O)c1ccc(-n2cc(CNC(=O)c3cccc(-n4cccn4)n3)cn2)cc1 [Compound 293] | 102 to 959 nM |
| CS(=O)(=O)c1ccc(-n2cc(CNC(=O)c3cccc(-n4cc(-c5ccccn5)cn4)n3)cn2)cc1 [Compound 297] | 4 to 97 nM |

| SMILES | IC50 |
| --- | --- |
| CS(=O)(=O)c1ccc(-n2cc(CNC(=O)c3cccc(-n4cc(-c5cccc(F)c5)cn4)n3)cn2)cc1 [Compound 295] | 102 to 959 nM |
| Cc1nc2ccc(-n3cc(CNC(=O)c4cccc(C(=O)NC(C)C)n4)cn3)cc2n1C(C)C [Compound 228] | 4 to 97 nM and 4 to 19 nM |
| CC(C)NC(=O)c1cc(O)cc(C(=O)NCc2cnn(-c3ccc4nccnc4c3)c2)n1 [Compound 436] | 4 to 97 nM |
| Nc1nc2ccc(CNC(=O)c3cccc(C(=O)N4CCCC(CO)C4)n3)cc2s1 (stereo not drawn) [Compound 37] | > 1000 nM |
| CC(C)NC(=O)c1cccc(C(=O)NCc2cnn(-c3ccc(F)c(C(F)(F)F)c3)c2)n1 [Compound 150] | 4 to 97 nM |
| CC(C)NC(=O)c1cccc(C(=O)NCc2ccc(N3CCCC3)nc2)n1 [Compound 114] | 102 to 959 nM |
| CC(C)(C)c1cnn(-c2cccc(C(=O)NCc3ccc(S(C)(=O)=O)cc3)n2)c1 [Compound 336] | 102 to 959 nM |
| Nc1nc2ccc(CNC(=O)c3cccc(C(=O)N4CCC(O)CC4)n3)cc2s1 [Compound 35] | > 1000 nM |
| CSc1nccc(N2CCC(NC(=O)c3cccc(C(=O)NCc4ccc(S(C)(=O)=O)cc4)n3)CC2)n1 [Compound 274] | > 1000 nM |
| CC[C@@H](C)NC(=O)c1cccc(C(=O)NCc2ccc3nc(N)sc3c2)n1 [Compound 8] | 4 to 97 nM |
| CC(C)NC(=O)c1cccc(C(=O)NCc2cnn(-c3ccccc3Cl)c2)n1 [Compound 157] | 102 to 959 nM |
| CC(C)NC(=O)c1cccc(C(=O)NCc2ccc(N3CCCC3=O)cc2)n1 [Compound 120] | 102 to 959 nM |
| CCOC(=O)N1CCC(NC(=O)c2cccc(Nc3ccc(N4CCOCC4)cc3)n2)CC1 [Compound 390] | > 1000 nM |
| CC(C)C(=O)Nc1cccc(C(=O)NCc2cnn(-c3cccc(C(F)(F)F)c3)c2)n1 [Compound 354] | 102 to 959 nM |
| CC(C)NC(=O)c1cccc(C(=O)NCc2ccc(-c3ccc(S(C)(=O)=O)cc3)nc2)n1 [Compound 181] | 102 to 959 nM |
| CC(C)NC(=O)c1cccc(C(=O)NCc2cnn(-c3cc(Br)cc(C#N)c3)c2)n1 [Compound 155] | 4 to 97 nM |
| Cc1cccc(-n2cc(CNC(=O)c3ccc(F)c(C(=O)NC(C)C)n3)cn2)c1 [Compound 428] | 4 to 97 nM |
| CCOC(=O)N1CCC(NC(=O)c2cc(-c3cccs3)cc(C(=O)NCc3ccc(S(C)(=O)=O)cc3)n2)CC1 [Compound 414] | > 1000 nM and 1030 to 10000 nM |
| CCOC(=O)N1CCC(NC(=O)c2cccc(NCc3ccc4c(c3)OCO4)n2)CC1 [Compound 392] | > 1000 nM |
| CCOC(=O)N1CCC(NC(=O)c2cccc(N(C)CCc3ccncc3)n2)CC1 [Compound 394] | > 1000 nM |
| CC(C)NC(=O)c1cccc(C(=O)NCc2cccc(Oc3ccccn3)c2)n1 [Compound 126] | 102 to 959 nM |
| CC(C)NC(=O)c1cccc(C(=O)NCc2ccccn2)n1 [Compound 101] | 1030 to 10000 nM and > 1000 nM |
| CC(C)NC(=O)c1cccc(C(=O)NCc2cncc(-c3cccc(S(C)(=O)=O)c3)c2)n1 [Compound 256] | 4 to 97 nM |

| SMILES | IC50 |
| --- | --- |
| CCOC(=O)N1CCC(NC(=O)c2cccc(Nc3cccnc3)n2)CC1 [Compound 388] | > 1000 nM |
| CCOC(=O)N1CCC(NC(=O)c2cccc(C(=O)NCc3ccc(C)c(F)c3)n2)CC1 [Compound 73] | > 1000 nM and 1030 to 10000 nM |
| CS(=O)(=O)c1ccc(CNC(=O)c2cccc(-n3ccc(C(F)(F)F)n3)n2)cc1 [Compound 315] | > 1000 nM and 1030 to 10000 nM |
| CC(C)NC(=O)c1cccc(C(=O)NCc2cnn(-c3ccc4nc(C(F)(F)F)n(C)c4c3)c2)n1 [Compound 234] | 4 to 19 nM and 4 to 97 nM |
| CC(C)NC(=O)c1cccc(C(=O)NCc2cnn(-c3cccnc3)c2)n1 [Compound 141] | 4 to 97 nM |
| CC(C)NC(=O)c1cccc(C(=O)NCC2CCN(c3ccc(S(C)(=O)=O)cc3)CC2)n1 [Compound 422] | > 1000 nM and 1030 to 10000 nM |
| CC(C)NC(=O)c1cccc(C(=O)NCc2cnn(-c3ccc(CN)cc3)c2)n1 [Compound 143] | 4 to 97 nM |
| CC(C)(C)NC(=O)c1cccc(C(=O)NCc2ccc3nc(N)sc3c2)n1 [Compound 53] | 102 to 959 nM |
| Cc1nc2cc(-n3cc(CNC(=O)c4cccc(C(=O)NC(C)C)n4)cn3)ccc2[nH]1 [Compound 146] | 4 to 97 nM |
| CC(C)NC(=O)c1cccc(C(=O)NCc2cnn(-c3ccc(S(=O)(=O)N(C)C)c(Cl)c3)c2)n1 [Compound 246] | 4 to 19 nM and 4 nM and 4 to 97 nM |
| C[C@@H](CO)NC(=O)c1cc(-c2cccs2)cc(C(=O)NCc2ccc(S(C)(=O)=O)cc2)n1 [Compound 416] | > 1000 nM and 1030 to 10000 nM |
| CCOC(=O)N1CCC(NC(=O)c2cccc(C(=O)NCc3ccc4c(c3)OCO4)c2)CC1 [Compound 372] | > 1000 nM |
| CC(C)NC(=O)c1cccc(C(=O)NCc2cnn(-c3ccc4nccn4c3)c2)n1 [Compound 210] | 4 to 97 nM |
| Nc1nc2ccc(CNC(=O)c3cccc(NCc4ccccc4)n3)cc2s1 [Compound 263] | > 1000 nM |
| CC(C)NC(=O)c1cccc(C(=O)NCc2ccc(Cl)nc2)n1 [Compound 99] | 102 to 959 nM |
| Cc1ccc2cc(-n3cc(CNC(=O)c4cccc(C(=O)NC(C)C)n4)cn3)ccc2n1 [Compound 149] | 4 to 19 nM and 4 to 97 nM |
| CC(C)NC(=O)c1cccc(C(=O)NCc2cnn(-c3ccc(S(=O)(=O)N4CCN(C(=O)OC(C)(C)C)CC4)c(Cl)c3)c2)n1 [Compound 247] | 4 to 97 nM |
| CS(=O)(=O)c1ccc(CNC(=O)c2cccc(-n3cc(-c4cnccn4)cn3)n2)cc1 [Compound 335] | 102 to 959 nM |
| CCNC(=O)Oc1cccc2ccc(C(=O)NCc3ccc(S(C)(=O)=O)cc3)nc12 [Compound 384] | > 1000 nM and 1030 to 10000 nM |
| Nc1nc2ccc(CNC(=O)c3cccc(C(=O)NC4CCC4)n3)cc2s1 [Compound 11] | 4 to 97 nM |
| O=C(NCc1cnn(-c2cccc(C(F)(F)F)c2)c1)c1cccc(-c2cc3ccccc3[nH]2)n1 [Compound 347] | 1030 to 10000 nM and > 1000 nM |
| CS(=O)(=O)c1ccc(CNC(=O)c2cccc(C(=O)NC3CCN(C(N)=O)CC3)n2)cc1 [Compound 55] | 102 to 959 nM |
| CC(C)NC(=O)c1cccc(C(=O)NCc2cnn(-c3ccc4cncnc4c3)c2)n1 [Compound 216] | 4 to 97 nM |

Reference: patent US8278337B2, “Substituted pyridines that are JNK inhibitors” (Merck Sharp & Dohme, priority 2006, dated 2012)
